Assay results as given in patent US6355799B1, “Substituted benzene compounds, process for their preparation, and herbicidal and defoliant compositions containing them” (ISK Americas Incorporated, priority 1997, dated 2002).

Tests used:
Type in all cases: in vivo
[1] = test system: field corn (Zea mays L., var. Dekalb 535, CORN); assay: Pre-emerge test, crop safety; conditions: rating scale 0-100, 14 days after application
Outline: (§1)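 Sandy loam pots; pre-emerge: sown 1 d pre-spray, surface-watered after, then bottom-watered. Post-emerge: sown 8–21 d before, 2–3 leaf stage, + 0.25% v/v NIS, bottom-watered. Acetone, 187 l/ha track spray, 15–1000 g ai/ha. 0–100 injury score, day 14.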

[2] = test system: upland rice (Oryza sp., var. Tebonnet, RICE); assay: Pre-emerge test, crop safety; conditions: rating scale 0-100, 14 days after application
Outline: as §1

[3] = test system: common ragweed (Ambrosia artemisizfolia L., AMBEL); assay: Post-emerge test, greenhouse herbicide activity screening; conditions: rating scale 0-100 (0 no damage, 100 complete death), 14 days after application
Outline: (§2)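 Compounds in acetone were track-sprayed at 15–1000 g ai/ha: pre-emergence onto soil sown the previous day, then top-watered to incorporate and later bottom-watered; post-emergence onto 2–3 leaf plants with 0.25% v/v surfactant, bottom-watered only. Ratings on a 0–100 phytotoxicity scale were taken at day 14.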

[4] = test system: ivyleaf morningglory (Ipomoea hederacea, IPOHE); assay: as above; conditions: rating scale 0-100 (0 no damage, 100 complete death), 14 days after application
Outline: as §2

[5] = test system: velvetleaf (Abutilon theophrasti, ABUTH); assay: as above; conditions: rating scale 0-100 (0 no damage, 100 complete death), 14 days after application
Outline: as §2

[6] = test system: johnsongrass (Sorghum halepense, SORHA); assay: as above; conditions: rating scale 0-100 (0 no damage, 100 complete death), 14 days after application
Outline: as §2

[7] = test system: green foxtail (Setaria viridis, SETVI); assay: as above; conditions: rating scale 0-100 (0 no damage, 100 complete death), 14 days after application
Outline: as §2

[8] = test system: lambsquarters (Chenopodium album, CHEAL); assay: as above; conditions: rating scale 0-100 (0 no damage, 100 complete death), 14 days after application
Outline: as §2

[9] = test system: barnyardgrass (Echinochloa crus-galli, ECHCG); assay: as above; conditions: rating scale 0-100 (0 no damage, 100 complete death), 14 days after application
Outline: as §2

[10] = test system: large crabgrass (Digitaria sanguinalis, DIGSA); assay: as above; conditions: rating scale 0-100 (0 no damage, 100 complete death), 14 days after application
Outline: as §2

[11] = test system: redroot pigweed (Amaranthus retroflexus, AMARE); assay: as above; conditions: rating scale 0-100 (0 no damage, 100 complete death), 14 days after application
Outline: as §2

[12] = test system: sicklepod (Cassia obtusifolia, CASOB); assay: as above; conditions: rating scale 0-100 (0 no damage, 100 complete death), 14 days after application
Outline: as §2

[13] = test system: field corn (Zea mays L., var. Dekalb 535, CORN); assay: Post-emerge test, crop safety; conditions: rating scale 0-100 (0 no damage, 100 complete death), 14 days after application
Outline: (§3)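 Compounds in acetone were track-sprayed at 187 l/ha, 15–1000 g ai/ha, onto sandy loam pots. Pre-emerge seeds were sown one day before spraying, with surface watering afterwards. Post-emerge plants were at the 2–3 leaf stage and sprayed with 0.25% v/v non-ionic surfactant. Injury was rated 0–100 at 14 days.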

[14] = test system: upland rice (Oryza sp., var. Tebonnet, RICE); assay: Post-emerge test, crop safety; conditions: rating scale 0-100 (0 no damage, 100 complete death), 14 days after application
Outline: as §3

[15] = test system: common ragweed (Ambrosia artemisizfolia L., AMBEL); assay: Pre-emerge test, greenhouse herbicide activity screening; conditions: rating scale 0-100, 14 days after application
Outline: as §3

[16] = test system: ivyleaf morningglory (Ipomoea hederacea, IPOHE); assay: as above; conditions: rating scale 0-100, 14 days after application
Outline: as §3

[17] = test system: velvetleaf (Abutilon theophrasti, ABUTH); assay: as above; conditions: rating scale 0-100, 14 days after application
Outline: as §3

[18] = test system: johnsongrass (Sorghum halepense, SORHA); assay: as above; conditions: rating scale 0-100, 14 days after application
Outline: as §3

[19] = test system: green foxtail (Setaria viridis, SETVI); assay: as above; conditions: rating scale 0-100, 14 days after application
Outline: as §3

[20] = test system: lambsquarters (Chenopodium album, CHEAL); assay: as above; conditions: rating scale 0-100, 14 days after application
Outline: as §3

[21] = test system: barnyardgrass (Echinochloa crus-galli, ECHCG); assay: as above; conditions: rating scale 0-100, 14 days after application
Outline: as §3

[22] = test system: large crabgrass (Digitaria sanguinalis, DIGSA); assay: as above; conditions: rating scale 0-100, 14 days after application
Outline: as §3

[23] = test system: sicklepod (Cassia obtusifolia, CASOB); assay: as above; conditions: rating scale 0-100, 14 days after application
Outline: as §3

[24] = test system: redroot pigweed (Amaranthus retroflexus, AMARE); assay: as above; conditions: rating scale 0-100, 14 days after application
Outline: as §3

## COc1c(Cl)cc(F)c(-n2c(=O)cc(C(F)(F)F)n(C)c2=O)c1CC(C)(Cl)C(=O)OCC(C)C (stereo not drawn) [14-40]
[1]; 63 g ai/ha
  Pre-emerge phytotoxicity rating, crop damage CORN: 0
[1]; 250 g ai/ha
  Pre-emerge phytotoxicity rating, crop damage CORN: 0
[2]; 63 g ai/ha
  Pre-emerge phytotoxicity rating, crop damage RICE: 20
[2]; 250 g ai/ha
  Pre-emerge phytotoxicity rating, crop damage RICE: 60
[3]; Rate 63 g ai/ha
  Post-emerge Herbicidal Activity, phytotoxicity rating AMBEL: 90
[3]; Rate 250 g ai/ha
  Post-emerge Herbicidal Activity, phytotoxicity rating AMBEL: 100
[4]; Rate 63 g ai/ha
  Post-emerge Herbicidal Activity, phytotoxicity rating IPOHE: 30
[4]; Rate 250 g ai/ha
  Post-emerge Herbicidal Activity, phytotoxicity rating IPOHE: 60
[5]; Rate 63 g ai/ha
  Post-emerge Herbicidal Activity, phytotoxicity rating ABUTH: 90
[5]; Rate 250 g ai/ha
  Post-emerge Herbicidal Activity, phytotoxicity rating ABUTH: 100
[6]; Rate 63 g ai/ha
  Post-emerge Herbicidal Activity, phytotoxicity rating SORHA: 20
[6]; Rate 250 g ai/ha
  Post-emerge Herbicidal Activity, phytotoxicity rating SORHA: 20
[7]; Rate 63 g ai/ha
  Post-emerge Herbicidal Activity, phytotoxicity rating SETVI: 85
[7]; Rate 250 g ai/ha
  Post-emerge Herbicidal Activity, phytotoxicity rating SETVI: 99
[8]; Rate 63 g ai/ha
  Post-emerge Herbicidal Activity, phytotoxicity rating CHEAL: 100
[8]; Rate 250 g ai/ha
  Post-emerge Herbicidal Activity, phytotoxicity rating CHEAL: 100
[9]; Rate 63 g ai/ha
  Post-emerge Herbicidal Activity, phytotoxicity rating ECHCG: 100
[9]; Rate 250 g ai/ha
  Post-emerge Herbicidal Activity, phytotoxicity rating ECHCG: 100
[10]; Rate 63 g ai/ha
  Post-emerge Herbicidal Activity, phytotoxicity rating DIGSA: 20
[10]; Rate 250 g ai/ha
  Post-emerge Herbicidal Activity, phytotoxicity rating DIGSA: 40
[11]; Rate 63 g ai/ha
  Post-emerge Herbicidal Activity, phytotoxicity rating AMARE: 100
[11]; Rate 250 g ai/ha
  Post-emerge Herbicidal Activity, phytotoxicity rating AMARE: 100
[12]; Rate 63 g ai/ha
  Post-emerge Herbicidal Activity, phytotoxicity rating CASOB: 20
[12]; Rate 250 g ai/ha
  Post-emerge Herbicidal Activity, phytotoxicity rating CASOB: 60
[13]; Rate 63 g ai/ha
  Post-emerge phytotoxicity rating CORN (crop damage): 35
[13]; Rate 250 g ai/ha
  Post-emerge phytotoxicity rating CORN (crop damage): 70
[14]; Rate 63 g ai/ha
  Post-emerge phytotoxicity rating RICE (crop damage): 15
[14]; Rate 250 g ai/ha
  Post-emerge phytotoxicity rating RICE (crop damage): 75
[15]; 63 g ai/ha
  Pre-emerge herbicidal activity, phytotoxicity rating AMBEL: 30
[15]; 250 g ai/ha
  Pre-emerge herbicidal activity, phytotoxicity rating AMBEL: 90
[16]; 63 g ai/ha
  Pre-emerge herbicidal activity, phytotoxicity rating IPOHE: 0
[16]; 250 g ai/ha
  Pre-emerge herbicidal activity, phytotoxicity rating IPOHE: 0
[17]; 63 g ai/ha
  Pre-emerge herbicidal activity, phytotoxicity rating ABUTH: 100
[17]; 250 g ai/ha
  Pre-emerge herbicidal activity, phytotoxicity rating ABUTH: 100
[18]; 63 g ai/ha
  Pre-emerge herbicidal activity, phytotoxicity rating SORHA: 0
[18]; 250 g ai/ha
  Pre-emerge herbicidal activity, phytotoxicity rating SORHA: 40
[19]; 63 g ai/ha
  Pre-emerge herbicidal activity, phytotoxicity rating SETVI: 50
[19]; 250 g ai/ha
  Pre-emerge herbicidal activity, phytotoxicity rating SETVI: 100
[20]; 63 g ai/ha
  Pre-emerge herbicidal activity, phytotoxicity rating CHEAL: 95
[20]; 250 g ai/ha
  Pre-emerge herbicidal activity, phytotoxicity rating CHEAL: 100
[21]; 63 g ai/ha
  Pre-emerge herbicidal activity, phytotoxicity rating ECHCG: 10
[21]; 250 g ai/ha
  Pre-emerge herbicidal activity, phytotoxicity rating ECHCG: 80
[22]; 63 g ai/ha
  Pre-emerge herbicidal activity, phytotoxicity rating DIGSA: 60
[22]; 250 g ai/ha
  Pre-emerge herbicidal activity, phytotoxicity rating DIGSA: 100
[23]; 63 g ai/ha
  Pre-emerge herbicidal activity, phytotoxicity rating CASOB: 0
[23]; 250 g ai/ha
  Pre-emerge herbicidal activity, phytotoxicity rating CASOB: 0
[24]; 63 g ai/ha
  Pre-emerge herbicidal activity, phytotoxicity rating AMARE: 100
[24]; 250 g ai/ha
  Pre-emerge herbicidal activity, phytotoxicity rating AMARE: 100
